Earlier results in US6780436B1, “Solid oral pharmaceutical formulation of modified release that contains an acid labile benzimidazole compound” (Laboratorios Del Dr. Esteve, SA, priority 1999, dated 2004).

Details: hard gelatin capsules that contain omeprazole pellets with enteric coating; stated 'in general' in the background

time of peak plasma concentration after administration: 2 h
Structure (SMILES): COc1ccc2[nH]c([S+]([O-])Cc3ncc(C)c(OC)c3C)nc2c1 (stereo not shown) [omeprazole, 5-methoxy-2[[(4-methoxy-3,5-dimethyl-2-pyridinyl)methyl]sulphinyl]-1H-benzimidazole]
